We go through twelve molecules from patent US8716480B2, “7-aryl-1,2,4-triazolo[4,3-a]pyridine derivatives and their use as positive allosteric modulators of mGluR2 receptors” (Janssen Pharmaceuticals, Inc., priority 2009, dated 2014).

The structures appear in SMILES notation. Where two headings read alike, the source gives them in different places. Marks after values point to notes of the source that are not given here.

In one series the target is T1, human mGluR2 receptor (Homo sapiens, UniProt Q14416).
T1 construct: expressed in transfected cells; host or cells: CHO cells (membranes)
T1 sequence (Q14416 19-872): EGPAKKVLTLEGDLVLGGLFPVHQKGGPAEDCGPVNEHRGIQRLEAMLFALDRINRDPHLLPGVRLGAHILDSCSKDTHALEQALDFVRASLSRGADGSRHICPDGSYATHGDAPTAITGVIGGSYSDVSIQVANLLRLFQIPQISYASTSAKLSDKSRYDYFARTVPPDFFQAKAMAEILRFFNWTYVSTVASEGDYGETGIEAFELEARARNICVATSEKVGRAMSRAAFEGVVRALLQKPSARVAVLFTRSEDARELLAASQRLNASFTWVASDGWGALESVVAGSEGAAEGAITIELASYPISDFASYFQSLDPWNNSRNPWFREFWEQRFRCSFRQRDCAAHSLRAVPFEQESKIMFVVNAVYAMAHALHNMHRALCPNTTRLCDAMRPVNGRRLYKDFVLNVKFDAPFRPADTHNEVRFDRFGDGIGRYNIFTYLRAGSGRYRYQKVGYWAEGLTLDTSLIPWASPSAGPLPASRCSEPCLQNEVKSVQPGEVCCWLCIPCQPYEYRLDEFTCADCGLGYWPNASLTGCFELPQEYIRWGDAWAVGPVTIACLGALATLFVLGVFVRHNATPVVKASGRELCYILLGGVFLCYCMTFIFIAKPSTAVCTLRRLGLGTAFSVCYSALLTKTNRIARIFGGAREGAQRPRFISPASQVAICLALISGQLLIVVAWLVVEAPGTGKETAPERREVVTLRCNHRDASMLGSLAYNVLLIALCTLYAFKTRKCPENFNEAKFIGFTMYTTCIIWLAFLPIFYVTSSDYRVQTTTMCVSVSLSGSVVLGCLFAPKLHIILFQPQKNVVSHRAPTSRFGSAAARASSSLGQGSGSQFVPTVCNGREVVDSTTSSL
As to the kind of experiment: [35S]GTPγS binding assay (PAM). The series is classed as biochemical. As to conditions: in presence of glutamate at predetermined EC20, membranes from CHO cells transfected with human mGluR2; for EC50: read-out: GTPγS -hR2 PAM pEC50 (converted). Here is the method: [^35S]GTPγS binding assay
The [^35S]GTPγS binding assay is a functional membrane-based assay used to study G-protein coupled receptor (GPCR) function whereby incorporation of a non-hydrolysable form of GTP, [^35S]GTPγS (guanosine 5′-triphosphate, labelled with […] ^35S), is measured.
CHO-cells were cultured to pre-confluence and stimulated with 5 mM butyrate for 24 h, prior to washing in PBS, and then collected by scraping in homogenisation buffer (50 mM Tris-HCl buffer, pH 7.4, 4° C.). Cell lysates were homogenized briefly using an ultra-turrax homogenizer. The homogenate was centrifuged at 16,000 RPM (Sorvall RC-5C plus rotor SS-34) for 10 minutes and the supernatant discarded. The pellet was resuspended in 5 mM Tris-HCl, pH 7.4 and centrifuged again (18,000 RPM, 20 min, 4° C.). The final pellet was resuspended in 50 mM Tris-HCl, pH 7.4 and stored at −80° C. in appropriate aliquots before use. Protein concentration was determined by the Bradford method (Bio-Rad, USA) with bovine serum albumin as standard.
Measurement of mGluR2 positive allosteric modulatory activity of test compounds was performed as follows. Test compounds and glutamate were diluted in assay buffer containing 10 mM HEPES acid, 10 mM HEPES salt, pH 7.4, 100 mM NaCl, 3 mM MgCl2 and 10 μM GDP. Human mGlu2 receptor-containing membranes were thawed on ice and diluted in assay buffer supplemented with 14 μg/ml saponin. Membranes were pre-incubated with compound alone or together with a predefined (˜EC20) concentration of glutamate (PAM assay) for 30 min at 30° C. After addition of [^35S]GTPγS (f.c. 0.1 nM) microplates were shaken briefly and further incubated to allow [^35S]GTPγS incorporation on activation (30 minutes, 30° C.). Final assay mixtures contained 7 μg of membrane protein in 10 mM HEPES acid, 10 mM HEPES salt, pH 7.4, 100 mM NaCl, 3 mM MgCl2, 10 μM GDP and 10 μg/ml saponin. Total reaction volume was […] Reactions were terminated by rapid filtration through Unifilter-96 GF/B filter plates (Packard, Meriden, Conn.) using a 96-well Packard filtermate harvester. Filters were washed 6 times with ice-cold 10 mM NaH2PO4/10 mM Na2HPO4, pH 7.4. Filters were then air-dried, and 40 μl of liquid scintillation cocktail (Microscint-O) was added to each well. Membrane-bound radioactivity was counted in a Microplate Scintillation and Luminescence Counter from Packard.
obtained in the presence of EC20 of mGluR2 agonist glutamate to determine positive allosteric modulation (PAM)—were generated using the Lexis software interface (developed at J&J). Data were calculated as % of the control glutamate response, defined as the maximal response that is generated upon addition of glutamate alone. Sigmoid concentration-response curves plotting these percentages versus the log concentration of the test compound were analyzed using non-linear regression analysis. The concentration producing half-maximal effect is then calculated as EC50.
All compounds were tested in presence of mGluR2 agonist, glutamate at a predetermined EC20 concentration, to determine positive allosteric modulation (GTPγS-PAM). pEC50 values were calculated from a concentration-response experiment of at least 10 concentrations.
Background: GTPγS resists hydrolysis and so accumulates on activated G proteins.

In another series the test system is male NMRI mice. As to the kind of experiment: Phencyclidine (PCP)-induced hyperlocomotion in mice. The series is classed as in vivo. Particulars: for ED50: Mus musculus; for ED50 PCP-Inh. (estimated): estimated ED50 (n = 3 per dose; 4-fold separation between doses). Here is the method: On the day of experiments, the mice were brought into the procedural room. They were housed individually and allowed to acclimate for at least a half hour prior to testing. Although the studies were conducted during the light cycle (from 8:00 to 16:00 h), the procedure room was only sparsely lit (3 to 30 LUX) to provide better contrast for the video tracking. Local lighting was used for the injection procedures. During each trial, an individual mouse was placed in an open field arena (grey PVC cylinder with a height of 40 cm and a diameter of 22.5 cm). Each arena was placed on an infrared LED (8×8 LEDs)-lit box (white PVC squared box; 40×40 cm^2; height 12.5 cm). Each mouse was placed in the center of the arena and allowed to explore freely for 30 min. After each trial, the arena was cleaned with a wet and subsequently with a dry cleaning cloth. An infrared sensitive tube camera and a white light source (in arena: 4-7 LUX) were mounted to the ceiling above the observation chamber to record and input activity to a computer. Animal behavior was recorded and analyzed using the Noldus Ethovision XT Video Tracking System (Version 3.1; Noldus, Wageningen, The Netherlands). The total distance traveled (cm) was calculated. Data were then exported to data management systems for further analysis and reporting.
Test compound or solvent was administered at a pre-defined time before measurement (standard: 30 min) to male NMRI mice that were challenged with phencyclidine (PCP; 5 mg/kg, s.c.) 30 min before measurement. Activity was measured for a period of 30 min.

The subject of another series is male Wiga Wistar rats. The series can be described thus: Conditioned avoidance response (CAR) test. The series is classed as in vivo. Particulars: criterion median avoidance latency >8 s; for ED50: Rattus norvegicus, po, read-out: ED50 CAR-Inh. The text has this:
The apparatus consisted of an inner box surrounded by an outer box. The inner box was composed of four walls of transparent, synthetic material (length×width×height: 30×30×30 cm), an open top, and a grid floor made of 15 pairs of iron bars (2 mm diameter; 6 mm inter-bar distance). Odd and even bars were connected with a source of alternative current (1.0 mA; Coulbourn Instruments Solid State Shocker/Distributor), which could be interrupted by a switch. The outer box was composed of the same material (length×width×height: 40×40×36 cm), also with an open top, with a distance of 5 cm between the inner and outer box on all sides. To decrease the amount of environmental stimuli, three walls of the outer box were made non-transparent. The front wall was left transparent to allow the necessary inspection of the animal during the test. The upper edge of the outer and inner box served as a target for the rats on which to jump with fore- and hind-paws, respectively.
From their arrival in the laboratory on the experimental day, male Wiga Wistar rats (230±30 g) were housed in individual cages provided with bedding material.
Latency to avoidance was recorded. The median avoidance response obtained over the three experimental sessions for each rat were used for further calculations.

The next series concerns Male mice (C57BL/6). As to the kind of experiment: Reversal of memantine-induced brain activation ([14C]2DG uptake) in mice. The series is classed as in vivo. Particulars: for L.A.D. (lowest active dose) for significant (p<0.05) reduction of 2DG uptake in the hippocampus compared to memantine response: mice, s.c., memantine 20 mg/kg s.c. Here is the method: Reversal of Memantine-Induced Brain Activation in Mice NMDA receptor hypofunction is hypothesized to be involved in schizophrenia.
Autoradiographic assessment of radiolabeled [^14C]-2-deoxyglucose ([^14C]2DG) uptake is commonly used to investigate brain activation. In humans, cerebral blood flow is increased in specific brain regions after administration of a subanaesthetic dose of ketamine.
Male mice (C57BL/6, weight 24-28 g, fasted overnight; n=10 animals per group) were treated with vehicle or test compound (s.c.) in randomized order (t=0 min). Memantine (20 mg/kg, s.c.) was injected 30 min later (t=30 min). At t=45 min, [^14C]2DG (0.16 μCi/g) was administered intraperitoneally (i.p.), followed by a 45 min uptake period. Animals were decapitated (t=90 min), plasma glucose levels measured, the brain removed, rapidly frozen and stored at −20° C. until sectioned. Brain sections were exposed together to a precalibrated [^14C]standard on film, which was developed after four days of exposure. Local tissue [^14C]concentration (nCi/mg tissue equivalent—TEQ-) in each region of interest was determined.
Data was analyzed statistically using a two-way ANOVA analysis followed by post-hoc tests (memantine response versus reversal by the compound). The results are shown in table 5 below, expressed as lowest active dose (L.A.D.) required to exert a statistically significant (p<0.05) reduction of 2DG uptake in the hippocampus compared to memantine response.

Where [1] appears, read: mice, PCP 5 mg/kg s.c., criterion total distance <5500 counts, not marked as oral, read-out: ED50 PCP-Inh.
The mark [2] stands for this setting: sc, read-out: ED50 PCP-Inh. (estimated).

As for `Cc1cc(Oc2ccc(-c3ccn4c(CC5CC5)nnc4c3Cl)cc2F)ccn1` [Co. No. 15], at human mGluR2 receptor, the “GTPγS -hR2 PAM pEC50” value turned out to be 6.65. For the same molecule, the “ED50 PCP-Inh.” value in the series on male NMRI mice (mice, PCP 5 mg/kg s.c., criterion total distance <5500 counts, not marked as oral) was 20 mg/kg. In the series on male Wiga Wistar rats (compound administered orally), the “ED50 CAR-Inh.” value is recorded as “≧40*^ mg/kg”. For the same molecule, the “L.A.D. (lowest active dose) for significant (p<0.05) reduction of 2DG uptake in the hippocampus compared to memantine response” value in the series with Male mice (C57BL/6) is recorded as “≦10 mg/kg”.
In the case of `Cc1ccc(Oc2ccc(-c3ccn4c(CC(F)(F)F)nnc4c3Cl)cc2F)c(C)n1` [Co. No. 3, 7-[3-Fluoro-4-(2′,6′-dimethyl-pyridin-3-yloxy)-phenyl]-8-chloro-3-(2,2,2-trifluoro-ethyl)-1,2,4-triazolo[4,3-a]pyridine], the melting point was 164.5 °C. The EC50 on human mGluR2 receptor is 45.7 nM. Further, the median effective dose (ED50) in the series with male NMRI mice (setting [1]) is 16.2 mg/kg. In the series on male Wiga Wistar rats (compound administered orally), the 50% effective dose (ED50) stood at 24.6 mg/kg. In the series on male Wiga Wistar rats (not marked as oral), the median effective dose (ED50) came out at 18.6 mg/kg.
As to `FC(F)(F)c1c(-c2ccc(Oc3ccnc(C4CC4)c3)c(Cl)c2)ccn2c(CC3CC3)nnc12` [Co. No. 54], on human mGluR2 receptor, the “GTPγS -hR2 PAM pEC50” value is listed as 8.38. Besides, the “ED50 CAR-Inh.” value with male Wiga Wistar rats (compound administered orally) was >40* mg/kg.
For the molecule `O=C(CCCN1CCC(O)(c2ccc(Cl)cc2)CC1)c1ccc(F)cc1` [haloperidol, reference compound], the “effect on memantine-induced brain glucose metabolism / 2DG uptake (in words)” value with Male mice (C57BL/6) (mouse brain) is “inactive”.
On to `Cc1ccc(Oc2ccc(-c3ccn4c(CC5CC5)nnc4c3Cl)cc2F)c(C)n1` [Co. No. 14, 8-Chloro-3-cyclopropylmethyl-7-{4-[(2,6-dimethylpyridin-3-yl)oxy]-3-fluorophenyl}[1,2,4]triazolo[4,3-a]pyridine], for which the melting point worked out at 207.2 °C. In addition, on human mGluR2 receptor, the EC50 is 42.7 nM. Further, in the series with male NMRI mice (setting [1]), the ED50 is 18 mg/kg. In addition, the ED50 in the series on male Wiga Wistar rats (compound administered orally) is 24.6 mg/kg.
On to `FC(F)(F)c1c(-c2ccc(N3CCNCC3)c(Cl)c2)ccn2c(CC3CC3)nnc12` [Co. No. 73], for which the “GTPγS -hR2 PAM pEC50” value on human mGluR2 receptor is 6.59. The “ED50 PCP-Inh. (estimated)” value with male NMRI mice (mice, PCP 5 mg/kg s.c.) was 12.6^a) mg/kg.
`FC(F)(F)Cc1nnc2c(Cl)c(-c3ccc(OC4CCOCC4)c(Cl)c3)ccn12` [Co. No. 7, 7-(3-Chloro-4-pyranyl-4-oxy-phenyl)-8-chloro-3-(2,2,2-trifluoro-ethyl)-1,2,4-triazolo[4,3-a]pyridine] returned a melting point of 186.7 °C. Further, the EC50 on human mGluR2 receptor is 174 nM. The ED50 in the series on male NMRI mice (setting [1]) came out at 10 mg/kg.
On to `COc1ccc(CNc2ccc(-c3ccn4c(CC5CC5)nnc4c3C(F)(F)F)cc2)cn1` [Co. No. 58], for which, on human mGluR2 receptor, the “GTPγS -hR2 PAM pEC50” value was 7.90. Further, in the series on male Wiga Wistar rats (compound administered orally), the “ED50 CAR-Inh.” value is recorded as “≧40*^ mg/kg”.
As to `CCc1cc(Oc2ccc(-c3ccn4c(CC5CC5)nnc4c3Cl)cc2F)ccn1` [Co. No. 48, 3-Cyclopropylmethyl-7-[4-(2-ethyl-pyridin-4-yloxy)-3-fluoro-phenyl]-8-chloro-[1,2,4]triazolo[4,3-a]pyridine], the melting point is > 300 °C. On human mGluR2 receptor, the EC50 was 145 nM. Besides, the ED50 with male NMRI mice (setting [2]) was 12.6 mg/kg. The “L.A.D. (lowest active dose) for significant (p<0.05) reduction of 2DG uptake in the hippocampus compared to memantine response” value in the series with Male mice (C57BL/6) is reported as “≦10 mg/kg”.
`Fc1cc(-c2ccn3c(CC4CC4)nnc3c2C(F)(F)F)ccc1Oc1ccnc(C2CC2)c1` [Co. No. 46, 3-Cyclopropylmethyl-7-[4-(2-cyclopropyl-pyridin-4-yloxy)-3-fluoro-phenyl]-8-trifluoromethyl-[1,2,4]triazolo[4,3-a]pyridine] had a melting point of 211.1 °C. Further, on human mGluR2 receptor, the EC50 was 17.8 nM. Also, the median effective dose (ED50) with male NMRI mice (setting [2]) was 20 mg/kg. For the same molecule, the “L.A.D. (lowest active dose) for significant (p<0.05) reduction of 2DG uptake in the hippocampus compared to memantine response” value with Male mice (C57BL/6) was “≦10 mg/kg”.
For `CCOCc1nnc2c(C)c(-c3ccc(Oc4ccc(C)nc4C)c(F)c3)ccn12` [Co. No. 42, 8-Methyl-3-ethoxymethyl-7-{3-fluoro-4-[(2,6-dimethylpyridin-3-yl)oxy]phenyl}[1,2,4]triazolo[4,3-a]pyridine] the same measures were 144 °C, 170 nM, 20 mg/kg and 5 mg/kg.
Consider `Fc1cnccc1Oc1ccc(-c2ccn3c(CC4CC4)nnc3c2C(F)(F)F)cc1` [Co. No. 63], for which the “GTPγS -hR2 PAM pEC50” value at human mGluR2 receptor amounted to 7.03. Moreover, the “ED50 PCP-Inh. (estimated)” value with male NMRI mice (mice, PCP 5 mg/kg s.c.) was 1.58^a) mg/kg.

One may read the ED50 as the dose at which the effect has come halfway, by size or by number of responders. The melting point is the temperature of the solid-liquid transition.
